Source: patent US7521418B2, “Use of a polyene macrolide antifungal agent in combination with a glycopeptide antibacterial agent” (Theravance, Inc., priority 2003, dated 2009)

What was measured:
Test in all cases: Checkerboard MIC assay, FICI
C. albicans ATCC 24433 = type: cell-based, Candida albicans; settings: combination with Compound 1; C. albicans ATCC 24433
From the text: (§1) The following assay was used to determine the minimum inhibitory concentration (MIC) and fractional inhibitory concentration index (FICI) for combinations of an antifungal agent and a glycopeptide antibacterial agent. This assay and methods for calculating FICI are well known in the art. See, for example, Eliopoulos, E. G. and R. Moellering, Jr. “Antimicrobial Combinations” in Antibiotics in Laboratory Medicine, edited by V. Lorian, 4th Ed., Williams & Wilkins, Baltimore, MD, pp. 330-396 (1996); […] et al., Antimicrobial Agents and Chemotherapy 47(4):1416-1418 (2003); or […] et al., Antimicrobial Agents and Chemotherapy 46(10):3323-3326 (2002). Procedures, protocols, supplies and equipment used in this assay follow the recommendations approved and published by the National Committee for Clinical Laboratory Standards (NCCLS), Wayne, Pa. as described in NCCLS 2003, “Reference Method for Broth Dilution Antimicrobial Susceptibility Tests for Bacteria that Grow Aerobically; Approved Standard” (NCCLS document M7-A6); NCCLS 2002, “Reference Method for Broth Dilution Antifungal Susceptibility Tests of Filamentous Fungi that Grow Aerobically; Approved Standard” (NCCLS document M38-A); and NCCLS 2002 “Reference Method for Broth Dilution Antifungal Susceptibility Tests of Yeast; Approved Standards-2nd Edition” (NCCLS document M27-A2). Using a checkerboard method, a 2-fold dilution 100× final concentration master plate was prepared using a 96-well U-shape microtiter plate and an appropriate solvent. In the “checkerboard” method, a microtiter plate is divided into “columns” in which each well in the column contains the same amount of an antifungal agent (Compound A) being diluted along the x-axis, and “rows” in which each well in the row contains the same amount of a glycopeptide antibacterial agent (Compound B) being diluted on the y-axis. Also included is a row (or column) for Compound A or B alone. The dilutions used in the checkerboard are exponential (by powers of two). The result is that each well in the microtiter plate contains a unique concentration of the two compounds being tested. […] After mixing, 100 μL of 2× drug combinations were distributed into 96-well microtiter plates. […] Compound A was not added to Column 12, so Column 12 contained only Compound B. Compound B was diluted from row A starting at 6,400 μg/mL down to row G (100 μg/mL). Wells in Row A contained a final concentration of 64 μg/mL of Compound B; Row B contained a final concentration of 32 μg/mL of Compound B; Row C contained a final concentration of 16 μg/mL of Compound B; etc. Compound B was not added to Row H, so Row H only contained Compound A. […] The MIC of the glycopeptide antibacterial agent determined from this experiment was used in FIC calculations. […] RPMI-1640 without sodium bicarbonate media (GIBCO-BRL, Carlsbad, Calif.), an enriched media formulated for mammalian cells, was used according to the NCCLS guidelines for yeast and filamentous fungi susceptibility testing. The medium was buffered with 0.165 M 3-[N-Morpholino]propanesulfonic acid (MOPS) supplemented with 20 g/L glucose and pH adjusted to 7.0 with hydrogen chloride. Sabouraud Dextrose Agar ([…] plates, and Potato Dextrose Agar (PDA) plates were purchased from Hardy Diagnostic (Santa Maria, Calif.). Yeast cultures were started from -80° C. frozen stock streaked on […] incubated at 35° C. under aerobic conditions for 24 h. The […] in the refrigerator for up to 2 weeks and used regularly as a starting culture. About 24 to 48 h before each assay was run, yeasts were streaked on SDA plates for isolated colonies. To prepare the inoculum, from one to four colonies were resuspended in 5 mL of saline, and vortexed for 15 sec. […] For most yeast and mold cultures, the optical density (OD) of the suspension was adjusted to 0.11 in saline to provide 0.4×10^6 CFU/mL. However, for Fusarium moniliforme and Pseudallescheria boydii the OD of the suspension was adjusted to OD=0.17 to provide 0.4×10^6 CFU/mL. […]

C. glabrata ATCC 200918 = type: cell-based, Candida glabrata; settings: combination with Compound 1
From the text: The following assay was used to determine the minimum inhibitory concentration (MIC) and fractional inhibitory concentration index (FICI) for combinations of an antifungal agent and a glycopeptide antibacterial agent. This assay and methods for calculating FICI are well known in the art. See, for example, Eliopoulos, E. G. and R. Moellering, Jr. “Antimicrobial Combinations” in Antibiotics in Laboratory Medicine, edited by V. Lorian, 4th Ed., Williams & Wilkins, Baltimore, MD, pp. 330-396 (1996); […] et al., Antimicrobial Agents and Chemotherapy 47(4):1416-1418 (2003); or […] et al., Antimicrobial Agents and Chemotherapy 46(10):3323-3326 (2002). Procedures, protocols, supplies and equipment used in this assay follow the recommendations approved and published by the National Committee for Clinical Laboratory Standards (NCCLS), Wayne, Pa. as described in NCCLS 2003, “Reference Method for Broth Dilution Antimicrobial Susceptibility Tests for Bacteria that Grow Aerobically; Approved Standard” (NCCLS document M7-A6); NCCLS 2002, “Reference Method for Broth Dilution Antifungal Susceptibility Tests of Filamentous Fungi that Grow Aerobically; Approved Standard” (NCCLS document M38-A); and NCCLS 2002 “Reference Method for Broth Dilution Antifungal Susceptibility Tests of Yeast; Approved Standards-2nd Edition” (NCCLS document M27-A2). Using a checkerboard method, a 2-fold dilution 100× final concentration master plate was prepared using a 96-well U-shape microtiter plate and an appropriate solvent. In the “checkerboard” method, a microtiter plate is divided into “columns” in which each well in the column contains the same amount of an antifungal agent (Compound A) being diluted along the x-axis, and “rows” in which each well in the row contains the same amount of a glycopeptide antibacterial agent (Compound B) being diluted on the y-axis. Also included is a row (or column) for Compound A or B alone. The dilutions used in the checkerboard are exponential (by powers of two). The result is that each well in the microtiter plate contains a unique concentration of the two compounds being tested. […] After mixing, 100 μL of 2× drug combinations were distributed into 96-well microtiter plates. […] Compound A was not added to Column 12, so Column 12 contained only Compound B. Compound B was diluted from row A starting at 6,400 μg/mL down to row G (100 μg/mL). Wells in Row A contained a final concentration of 64 μg/mL of Compound B; Row B contained a final concentration of 32 μg/mL of Compound B; Row C contained a final concentration of 16 μg/mL of Compound B; etc. Compound B was not added to Row H, so Row H only contained Compound A. […] The MIC of the glycopeptide antibacterial agent determined from this experiment was used in FIC calculations. […]

C. tropicalis ATCC 750 = type: cell-based, Candida tropicalis; settings: combination with Compound 1; C. tropicalis ATCC 750
From the text: as §1

Compound	FICI (C. albicans ATCC 24433)	FICI (C. glabrata ATCC 200918)	FICI (C. tropicalis ATCC 750)
C[C@@H]1[C@H](O)[C@@H](C)/C=C/C=C/C=C/C=C/C=C/C=C/C=C/[C@H](O[C@@H]2O[C@H](C)[C@@H](O)[C@H](N)[C@@H]2O)C[C@@H]2O[C@](O)(C[C@@H](O)C[C@@H](O)[C@H](O)CC[C@@H](O)C[C@@H](O)CC(=O)O[C@H]1C)C[C@H](O)[C@H]2C(=O)O [Amphotericin B]	0.19	0.19	0.27
C[C@@H]1[C@H](O)[C@@H](C)/C=C/C=C/CC/C=C/C=C/C=C/C=C/C(O[C@H]2O[C@H](C)[C@@H](O)[C@H](N)[C@@H]2O)CC2O[C@](O)(CC(O)C(O)CCC(O)CC(O)CC(O)CC(=O)O[C@H]1C)CC(O)C2C(=O)O (stereo partly drawn) [Nystatin]	0.31	0.31	0.31
